Measurements: PMC8541353, “A Novel Phenylpyrrolidine Derivative: Synthesis and Effect on Cognitive Functions in Rats with Experimental Ishemic Stroke” (Molecules, 2021)

Assays:
Type in all cases: in vivo, Wistar rats
intact animals [1] = assay: Light-dark box test (LDB) in intact animals; details: intact rats, day 8; compound 1 125 mg kg^−1, piracetam 300 mg kg^−1, intraperitoneally for 5 days; mean and SD
Excerpt: (§1) Before the study, the intact animals were subjected to the hole-board test (HBT), weighed, and stratified into three uniform groups in terms of orientational/exploratory activity and weight. […] On day 7, we performed OFT (open field test), followed by LDB (light—dark box test) on day 8 (Scheme 3, Step 1). These tests assess the activity and describe the behavior of the animals. According to OFT, compound 1 decreased the vertical activity and the immobility time compared to the saline-treated group (Table 2).
(§2) Before conducting the experiments, the animals underwent the HBT and were allocated to groups based on their behavior score and weight. Kullback–Leibler divergence method for allocation based on two numerical parameters was used for allocation. We used a sum score for behavior tests and weight. Subsequently, two experimental series were performed. In the first series, rat behavior without stroke modeling after injection of compound 1 (experimental group, n = 10) or saline (control group, n = 10) was evaluated (Scheme 3a). […] Compound 1 was injected at a dose of 125 mg kg^−1 and an injection volume of 0.5 mL. […] For the experiments, the following predetermined exclusion criteria were used: (1) incomplete MCAO indicated by an incomplete lesion on magnetic resonance imaging (MRI) after 24 h [n = 4]and (2) post-operative weight loss of > 20% and severe animal condition within the first post-stroke 48 h [n = 3]. Animals reached humane endpoints based on the absence of nociceptive reflex withdrawal responses, hypothermia, and heart rate reduction to 100–150 beats min^−1. As steroid treatment could have influenced the experiment, rats were humanely euthanized according to the ethical protocol. The experiment design is presented in Scheme 3b.
(§3) In the first experimental series, the following test systems were used: HBT (OpenScience, Russia), OFT (OpenScience), and LDT (OpenScience). The design for the second experimental series was as follows. All rat behavioral changes were evaluated during the four weeks after stroke simulation. Individuals who performed these procedures were double-blinded. General neurological disorders were assessed using the modified neurological severity score (mNSS). Motor and cognitive impairment were evaluated using the following functional tests: BWT (OpenScience), HBT (OpenScience), and OFT (OpenScience). The BWT was performed between postoperative days 12 and 14. In this test, motor dysfunction in all four limbs was evaluated; specifically, the number of steps, errors, and slides were counted. The overall score was calculated using the following formula: score = errors + 0.5 × slides × 100/total number of steps [47]. The beam apparatus consists of 165 cm beams with a flat surface of 10 mm or 6 mm width, resting 100 cm above the table top on two poles. A black box is placed at the end of the beam as the finish point. Nesting material from home cages is placed in the black box to attract the rat to the finish point. A lamp (with 60-watt light bulb) is used at the start to stimulate the animals to move towards the end.

intact animals [2] = assay: Open field test (OFT) in intact animals; details: intact rats, day 7; compound 1 125 mg kg^−1, piracetam 300 mg kg^−1, intraperitoneally for 5 days; mean and SD
Excerpt: as §1, §2, §3

rats with MCAO [3] = assay: Neurological deficit (mNSS) in MCAO model; details: 24 h to day 7
Experimental: A MCAO animal model was used to characterize the effects of compound 1 on the development and resolution of stroke. At the baseline, we performed the MRI and hole-board test before MCAO surgery. Once animals recovered after the surgery, we stratified them based on their background psycho-emotional status and performed a control MRI to access whether the occlusion was sufficient or not. […] From 24 h to day 7, the neurological status was assessed daily according to the neurological scale (mNSS). By the end of day 7, animals underwent MRI. In addition, MRI was performed on days 14 and 28 (Shceme 3)The hole-board test was repeated on days 10 and 24. The degree of motor function impairment, the deficit of exploratory behavior, and the recovery process were assessed in the beam walking test (BWT), which was performed twice on days 12 and 14. An open field test was carried out on days 16 and 26. […]
In the first experimental series, the following test systems were used: HBT (OpenScience, Russia), OFT (OpenScience), and LDT (OpenScience). […] All rat behavioral changes were evaluated during the four weeks after stroke simulation. […] General neurological disorders were assessed using the modified neurological severity score (mNSS). Motor and cognitive impairment were evaluated using the following functional tests: BWT (OpenScience), HBT (OpenScience), and OFT (OpenScience). […]

rats with MCAO [4] = assay: Survival within 28 days after MCAO (Kaplan-Meier, log-rank); details: 28 days after first administration, log-rank test
Experimental: All statistical analyses were performed using the IBM® SPSS® Statistics Version 23.0 and R software Version 3.3.2 (R Foundation for Statistical Computing, Vienna, Austria). For normally distributed quantitative continuous variables, the mean and standard deviation (SD) values were calculated and presented as descriptive statistics. For ordinal variables, median and 25- and 75-percentiles were calculated. For qualitative variables, the absolute count and percentage value for each category were calculated. For quantitative variables, the normality of distribution was verified using frequency histograms and Kolmogorov–Smirnov test. A two-tailed p-value < 0.05 was considered statistically significant. To compare changes in structure displacement, lesion size, and neurological scale, a general linear repeated measures model with a group as a fixed factor was used. One-way multivariate analysis of variance was used in the analysis of behavior. Experimental groups were designed to have an equal sample size (8 vs. 8 rats) based on sample size calculations for the independent sample t-test using Statistica 10 software (type I error 0.05, type II error 0.20). Animal survival was estimated by the Kaplan–Meier method using the log-rank test.

| SMILES | Number of crossings (n) (intact animals [1]) | Number of peeking out events (n) (intact animals [1]) | Time spent in the light compartment (intact animals [1]) [s] | Crossings (n) (intact animals [2]) | Grooming time (intact animals [2]) [s] | Immobility duration (intact animals [2]) [s] | Number of center sector crossings (center) (n) (intact animals [2]) | Vertical activity (n) (intact animals [2]) | Regression of neurological symptoms (rats with MCAO [3]) [%] | Survival of animals vs other groups (rats with MCAO [4]) |
| --- | --- | --- | --- | --- | --- | --- | --- | --- | --- | --- |
| O=C(CN1CC(c2ccccc2)CC1=O)NCCS(=O)(=O)[O-].[K+] (centres unmarked) [Compound 1, potassium 2-[2-(2-oxo-4-phenylpyrrolidin-1-yl)acetamido]ethane-1-sulfonate] | 2.9 ± 1.2 | 5.2 ± 2.8 | 16.5 ± 8.3 | 53.7 ± 10.3 | 40.6 ± 33.2 | 12.8 ± 8.4 | 1.6 ± 0.6 | 10.3 ± 4.3 | 35 | no significant differences |
| NC(=O)CN1CCCC1=O [Piracetam, reference compound] | 3.7 ± 1.6 | 4.8 ± 2.5 | 26.3 ± 13.4 | 65.4 ± 20.4 | 14.4 ± 9.4 | 16.0 ± 10.4 | 1.4 ± 1.2 | 15.9 ± 7.5 | 25 | no significant differences |
